Results: US5021413A (priority 1988, dated 1991)
Counter-ions that a name gives are not always drawn.

Legend:
κ-receptors = molecular target: T1, κ-receptors (Cavia porcellus, UniProt P41144); experiment: biochemical; format: binding, guinea pig (male Hartley)
T1 construct: A raw preparation from brain membrane was made; tissue Japan SLC; host or cells: guinea pig whole brain without cerebellum, crude membranes

[1] = tested on: p-phenylquinone-induced writhing in mice; experiment: animal or person; format: in vivo, mouse (male ddY mice); conditions: sc; for ED50: Mus musculus, read-out: Analgesic effect, phenylquinone-induced writhing, ED50; for Analgesic effect, phenylquinone-induced writhing at 320 μg/kg (analgesic-effective animals/all animals): mouse, in vivo
μ-receptors = molecular target: T2, μ-receptors (Cavia porcellus, UniProt A0ACM8Q262); parameters: species or system guinea pig (male Hartley); conditions: read-out: Binding to opioid receptors, μ (IC50)
T2 construct: [3H]DAGO (DAMGO) displacement
T2 sequence (A0ACM8Q262 1-400): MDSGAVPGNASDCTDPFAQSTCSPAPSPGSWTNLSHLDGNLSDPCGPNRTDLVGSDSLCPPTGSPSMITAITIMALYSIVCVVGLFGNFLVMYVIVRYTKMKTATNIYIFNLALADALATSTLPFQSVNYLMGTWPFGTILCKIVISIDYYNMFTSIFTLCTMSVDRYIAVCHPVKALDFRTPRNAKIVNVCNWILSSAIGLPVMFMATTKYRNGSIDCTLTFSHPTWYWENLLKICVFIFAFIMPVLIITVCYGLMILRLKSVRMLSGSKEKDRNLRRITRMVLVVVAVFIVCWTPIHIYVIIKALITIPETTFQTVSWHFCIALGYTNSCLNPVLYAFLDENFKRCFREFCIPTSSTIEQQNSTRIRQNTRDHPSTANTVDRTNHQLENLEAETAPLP

T1 sequence (P41144 whole entry): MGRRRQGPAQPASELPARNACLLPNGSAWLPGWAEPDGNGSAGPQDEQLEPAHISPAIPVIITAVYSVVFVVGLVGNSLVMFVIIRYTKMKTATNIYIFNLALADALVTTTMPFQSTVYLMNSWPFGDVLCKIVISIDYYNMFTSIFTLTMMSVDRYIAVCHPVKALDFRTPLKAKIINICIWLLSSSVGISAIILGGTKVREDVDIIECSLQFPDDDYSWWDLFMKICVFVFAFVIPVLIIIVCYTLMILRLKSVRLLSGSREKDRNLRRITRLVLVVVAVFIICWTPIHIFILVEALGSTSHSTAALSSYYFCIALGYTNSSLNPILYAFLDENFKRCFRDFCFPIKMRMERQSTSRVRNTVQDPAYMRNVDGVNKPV

Structure (SMILES) | IC50 (κ-receptors) [nM] | ED50 [1] [µg/kg] | IC50 (μ-receptors) [nM] | Analgesic effect, phenylquinone-induced writhing at 320 μg/kg (analgesic-effective animals/all animals) [1]
O=C1C[C@H](C(=O)N2CCCC[C@H]2CN2CCCC2)c2cc(Cl)c(Cl)cc21 (relative stereo) [Example 4-D1, 1-[(1S*)-5,6-dichloro-3-oxoindan-1-carbonyl)-(2S*)-2-pyrrolidin-1-ylmethyl)piperidine] | 1.4 | 3.43 | 531 | 
O=C1C[C@@H](C(=O)N2CCCC[C@H]2CN2CCCC2)c2cc(Cl)c(Cl)cc21 (relative stereo) [Example 4-D2, 1-[(1R*)-5,6-dichloro-3-oxoindan-1-carbonyl](2S*)-2-(pyrrolidin-1-ylmethyl)piperidine] | 366 | 270 |  | 
O=C([C@H]1CCc2cc(Cl)c(Cl)cc21)N1CCSC[C@@H]1CN1CCCC1 (relative stereo) [Example 41-D1, 4-[(1S*)-5,6-dichloroindan-1-carbonyl]-(3S*)-3-(pyrrolidin-1-ylmethyl)thiomorpholine] | 0.67 | 1.3 | 698 | 
O=C1CC(C(=O)N2CCCCC2CN2CCCC2)c2cc(Cl)c(Cl)cc21 (stereo not shown) [Example 1, 1-(5,6-dichloro-3-oxoindan-1-carbonyl)-2-(pyrrolidin-1-yl-methyl)piperidinehydrochloride] | 1.75 | 6.2 | 1070 | 
O=C1C[C@H](C(=O)N2CCCC[C@H]2CN2CCCC2)c2cc(Cl)c(Cl)cc21 [Example 2-E1, 1-[(1S)-5,6-dichloro-3-oxoindan-1-carbonyl]-(2S)-2-(pyrrolidin-1-ylmethyl)piperidine] | 0.9 | 1.73 | 232 | 
O=C1C[C@@H](C(=O)N2CCCC[C@H]2CN2CCCC2)c2cc(Cl)c(Cl)cc21 [Example 2-E2, 1-[(1R)-5,6-dichloro-3-oxoindan-1-carbonyl]-(2S)-2-(pyrrolidin-1-ylmethyl)piperidine] | 258 | 320 |  | 
O=C(Cc1ccc(Cl)c(Cl)c1)N1CCSCC1CN1CCCC1 (stereo not shown) [Example 17, 4-(3,4-dichlorophenylacetyl)-3-(pyrrolidin-1-ylmethyl)thiomorpholine hydrochloride] | 1.1 |  |  | 5/5
O=C1CC(C(=O)N2CCSCC2CN2CCCC2)c2cc(Cl)c(Cl)cc21 (stereo not shown) [Example 36, 4-(5,6-dichloro-3-oxoindan-1-carbonyl)-3-(pyrrolidin-1-ylmethyl)thiomorpholine hydrochloride] | 2.4 | 3.4 | 1140 | 
CN1CC[C@]23c4c5ccc(O)c4O[C@H]2[C@@H](O)C=C[C@H]3[C@H]1C5.Cl [Morphine HCl, reference compound] |  |  |  | 2/5
